{"source": "ChEMBL document CHEMBL1158278", "about": "“New macrocyclic spermine (budmunchiamine) alkaloids from Albizia gummifera: with some observations on the structure--activity relationships of the budmunchiamines” (J Nat Prod, 1996)", "key": {"Bacillus subtilis [1]": {"tested_on": "Bacillus subtilis", "assay": "Antibacterial activity against Bacillus subtilis NCTC 8326", "format": "functional"}, "Bacillus subtilis [2]": {"tested_on": "Bacillus subtilis", "assay": "Antibacterial activity against Bacillus subtilis NCTC 8326 at 50 ug/disk", "format": "functional", "details": "read-out: IZ"}, "Escherichia coli [3]": {"tested_on": "Escherichia coli", "assay": "Antibacterial activity against Escherichia coli NCTC 9001", "format": "functional"}, "Pseudomonas aeruginosa [4]": {"tested_on": "Pseudomonas aeruginosa", "assay": "Antibacterial activity against Pseudomonas aeruginosa NCTC 6750 at 50 ug/disk", "format": "functional", "details": "read-out: IZ"}, "Pseudomonas aeruginosa [5]": {"tested_on": "Pseudomonas aeruginosa", "assay": "Antibacterial activity against Pseudomonas aeruginosa NCTC 6750", "format": "functional"}, "Escherichia coli [6]": {"tested_on": "Escherichia coli", "assay": "Antibacterial activity against Escherichia coli NCTC 9001 at 50 ug/disk", "format": "functional", "details": "read-out: IZ"}, "Staphylococcus aureus [7]": {"tested_on": "Staphylococcus aureus", "assay": "Antibacterial activity against Staphylococcus aureus NCTC 6751", "format": "functional"}, "Staphylococcus aureus [8]": {"tested_on": "Staphylococcus aureus", "assay": "Antibacterial activity against Staphylococcus aureus NCTC 6751 at 50 ug/disk", "format": "functional", "details": "read-out: IZ"}, "[9]": {"assay": "Toxicity against brine shrimp", "format": "organism-based", "details": "artemia, in vivo"}}}
{"molecule": "O=C(N[C@H](CO)[C@H](O)c1ccc([N+](=O)[O-])cc1)C(Cl)Cl", "note": "[CHLORAMPHENICOL]", "values": [{"measurement": "MIC", "setting": "Bacillus subtilis [1]", "result": 7, "unit": "µg/mL"}, {"measurement": "zone of inhibition at 50 µg/disc", "setting": "Bacillus subtilis [2]", "result": 31, "unit": "mm"}, {"measurement": "MIC", "setting": "Escherichia coli [3]", "result": 12, "unit": "µg/mL"}, {"measurement": "zone of inhibition at 50 µg/disc", "setting": "Pseudomonas aeruginosa [4]", "result": 17, "unit": "mm"}, {"measurement": "MIC", "setting": "Pseudomonas aeruginosa [5]", "result": 26, "unit": "µg/mL"}, {"measurement": "zone of inhibition at 50 µg/disc", "setting": "Escherichia coli [6]", "result": 26, "unit": "mm"}, {"measurement": "MIC", "setting": "Staphylococcus aureus [7]", "result": 7, "unit": "µg/mL"}, {"measurement": "zone of inhibition at 50 µg/disc", "setting": "Staphylococcus aureus [8]", "result": 24, "unit": "mm"}]}
{"molecule": "CCCCCCCCCC(O)CCCCCC1CC(=O)NCCCN(C)CCCCN(C)CCCN1", "note": "(configuration not stated)", "values": [{"measurement": "zone of inhibition at 50 µg/disc", "setting": "Bacillus subtilis [2]", "result": 9, "unit": "mm"}, {"measurement": "zone of inhibition at 50 µg/disc", "setting": "Pseudomonas aeruginosa [4]", "result": 7, "unit": "mm"}, {"measurement": "LC50", "setting": "[9]", "result": 60.4, "unit": "µg/mL"}, {"measurement": "zone of inhibition at 50 µg/disc", "setting": "Escherichia coli [6]", "result": 7, "unit": "mm"}, {"measurement": "zone of inhibition at 50 µg/disc", "setting": "Staphylococcus aureus [8]", "result": 9, "unit": "mm"}]}
{"molecule": "CCCCCCCCCCCCCCCC1CC(=O)NCCCN(C)CCCCN(C)CCCN1C", "note": "(configuration not stated) [BUDMUNCHIAMINE K]", "values": [{"measurement": "MIC", "setting": "Bacillus subtilis [1]", "result": 19, "unit": "µg/mL"}, {"measurement": "zone of inhibition at 50 µg/disc", "setting": "Bacillus subtilis [2]", "result": 10, "unit": "mm"}, {"measurement": "MIC", "setting": "Escherichia coli [3]", "result": 24, "unit": "µg/mL"}, {"measurement": "zone of inhibition at 50 µg/disc", "setting": "Pseudomonas aeruginosa [4]", "result": 11, "unit": "mm"}, {"measurement": "MIC", "setting": "Pseudomonas aeruginosa [5]", "result": 28, "unit": "µg/mL"}, {"measurement": "LC50", "setting": "[9]", "result": 6.6, "unit": "µg/mL"}, {"measurement": "zone of inhibition at 50 µg/disc", "setting": "Escherichia coli [6]", "result": 11, "unit": "mm"}, {"measurement": "MIC", "setting": "Staphylococcus aureus [7]", "result": 15, "unit": "µg/mL"}, {"measurement": "zone of inhibition at 50 µg/disc", "setting": "Staphylococcus aureus [8]", "result": 11, "unit": "mm"}]}
{"molecule": "CCCCCCCCCCCC1CC(=O)NCCCN(C)CCCCN(C)CCCN1C", "note": "(configuration not stated) [BUDMUNCHIAMINE A]", "values": [{"measurement": "MIC", "setting": "Bacillus subtilis [1]", "result": 15, "unit": "µg/mL"}, {"measurement": "zone of inhibition at 50 µg/disc", "setting": "Bacillus subtilis [2]", "result": 11, "unit": "mm"}, {"measurement": "MIC", "setting": "Escherichia coli [3]", "result": 25, "unit": "µg/mL"}, {"measurement": "zone of inhibition at 50 µg/disc", "setting": "Pseudomonas aeruginosa [4]", "result": 10, "unit": "mm"}, {"measurement": "MIC", "setting": "Pseudomonas aeruginosa [5]", "result": 30, "unit": "µg/mL"}, {"measurement": "LC50", "setting": "[9]", "result": 4, "unit": "µg/mL"}, {"measurement": "zone of inhibition at 50 µg/disc", "setting": "Escherichia coli [6]", "result": 11, "unit": "mm"}, {"measurement": "MIC", "setting": "Staphylococcus aureus [7]", "result": 18, "unit": "µg/mL"}, {"measurement": "zone of inhibition at 50 µg/disc", "setting": "Staphylococcus aureus [8]", "result": 10, "unit": "mm"}]}
{"molecule": "CCCCCCCCCC(O)CCCCCC1CC(=O)NCCCN(C)CCCCN(C)CCCN1C", "note": "(configuration not stated)", "values": [{"measurement": "MIC", "setting": "Bacillus subtilis [1]", "result": 42, "unit": "µg/mL"}, {"measurement": "zone of inhibition at 50 µg/disc", "setting": "Bacillus subtilis [2]", "result": 8, "unit": "mm"}, {"measurement": "MIC", "setting": "Escherichia coli [3]", "result": 64, "unit": "µg/mL"}, {"measurement": "zone of inhibition at 50 µg/disc", "setting": "Pseudomonas aeruginosa [4]", "result": 8, "unit": "mm"}, {"measurement": "MIC", "setting": "Pseudomonas aeruginosa [5]", "result": 75, "unit": "µg/mL"}, {"measurement": "LC50", "setting": "[9]", "result": 69.1, "unit": "µg/mL"}, {"measurement": "zone of inhibition at 50 µg/disc", "setting": "Escherichia coli [6]", "result": 7, "unit": "mm"}, {"measurement": "MIC", "setting": "Staphylococcus aureus [7]", "result": 30, "unit": "µg/mL"}, {"measurement": "zone of inhibition at 50 µg/disc", "setting": "Staphylococcus aureus [8]", "result": 9, "unit": "mm"}]}
{"molecule": "CCCCCCCCCCCCCCCC1CC(=O)NCCCN(C)CCCCNCCCN1C", "note": "(configuration not stated)", "values": [{"measurement": "zone of inhibition at 50 µg/disc", "setting": "Bacillus subtilis [2]", "result": 10, "unit": "mm"}, {"measurement": "zone of inhibition at 50 µg/disc", "setting": "Pseudomonas aeruginosa [4]", "result": 9, "unit": "mm"}, {"measurement": "LC50", "setting": "[9]", "result": 15.9, "unit": "µg/mL"}, {"measurement": "zone of inhibition at 50 µg/disc", "setting": "Escherichia coli [6]", "result": 9, "unit": "mm"}, {"measurement": "zone of inhibition at 50 µg/disc", "setting": "Staphylococcus aureus [8]", "result": 11, "unit": "mm"}]}
{"molecule": "CCCCCCCCCCCCCC1CC(=O)NCCCN(C)CCCCN(C)CCCN1", "note": "(configuration not stated) [BUDMUNCHIAMINE G]", "values": [{"measurement": "MIC", "setting": "Bacillus subtilis [1]", "result": 24, "unit": "µg/mL"}, {"measurement": "zone of inhibition at 50 µg/disc", "setting": "Bacillus subtilis [2]", "result": 12, "unit": "mm"}, {"measurement": "MIC", "setting": "Escherichia coli [3]", "result": 30, "unit": "µg/mL"}, {"measurement": "zone of inhibition at 50 µg/disc", "setting": "Pseudomonas aeruginosa [4]", "result": 9, "unit": "mm"}, {"measurement": "MIC", "setting": "Pseudomonas aeruginosa [5]", "result": 35, "unit": "µg/mL"}, {"measurement": "LC50", "setting": "[9]", "result": 12.3, "unit": "µg/mL"}, {"measurement": "zone of inhibition at 50 µg/disc", "setting": "Escherichia coli [6]", "result": 10, "unit": "mm"}, {"measurement": "MIC", "setting": "Staphylococcus aureus [7]", "result": 18, "unit": "µg/mL"}, {"measurement": "zone of inhibition at 50 µg/disc", "setting": "Staphylococcus aureus [8]", "result": 10, "unit": "mm"}]}
{"molecule": "CCCCCCCCCCCCCCCC1CC(=O)NCCCNCCCCN(C)CCCN1C", "note": "(configuration not stated)", "values": [{"measurement": "zone of inhibition at 50 µg/disc", "setting": "Bacillus subtilis [2]", "result": 10, "unit": "mm"}, {"measurement": "zone of inhibition at 50 µg/disc", "setting": "Pseudomonas aeruginosa [4]", "result": 10, "unit": "mm"}, {"measurement": "LC50", "setting": "[9]", "result": 18.2, "unit": "µg/mL"}, {"measurement": "zone of inhibition at 50 µg/disc", "setting": "Escherichia coli [6]", "result": 9, "unit": "mm"}, {"measurement": "zone of inhibition at 50 µg/disc", "setting": "Staphylococcus aureus [8]", "result": 11, "unit": "mm"}]}
{"molecule": "CCCCCCCC(O)CCCCCC1CC(=O)NCCCN(C)CCCCN(C)CCCN1C", "note": "(configuration not stated)", "values": [{"measurement": "MIC", "setting": "Bacillus subtilis [1]", "result": 45, "unit": "µg/mL"}, {"measurement": "zone of inhibition at 50 µg/disc", "setting": "Bacillus subtilis [2]", "result": 8, "unit": "mm"}, {"measurement": "MIC", "setting": "Escherichia coli [3]", "result": 72, "unit": "µg/mL"}, {"measurement": "zone of inhibition at 50 µg/disc", "setting": "Pseudomonas aeruginosa [4]", "result": 7, "unit": "mm"}, {"measurement": "MIC", "setting": "Pseudomonas aeruginosa [5]", "result": 84, "unit": "µg/mL"}, {"measurement": "LC50", "setting": "[9]", "result": 79.7, "unit": "µg/mL"}, {"measurement": "zone of inhibition at 50 µg/disc", "setting": "Escherichia coli [6]", "result": 7, "unit": "mm"}, {"measurement": "MIC", "setting": "Staphylococcus aureus [7]", "result": 35, "unit": "µg/mL"}, {"measurement": "zone of inhibition at 50 µg/disc", "setting": "Staphylococcus aureus [8]", "result": 8, "unit": "mm"}]}
{"molecule": "CCCCCCCCCCCCCCCC1CC(=O)NCCCN(C)CCCCN(C)CCCN1", "note": "(configuration not stated)", "values": [{"measurement": "MIC", "setting": "Bacillus subtilis [1]", "result": 20, "unit": "µg/mL"}, {"measurement": "zone of inhibition at 50 µg/disc", "setting": "Bacillus subtilis [2]", "result": 11, "unit": "mm"}, {"measurement": "MIC", "setting": "Escherichia coli [3]", "result": 27, "unit": "µg/mL"}, {"measurement": "zone of inhibition at 50 µg/disc", "setting": "Pseudomonas aeruginosa [4]", "result": 10, "unit": "mm"}, {"measurement": "MIC", "setting": "Pseudomonas aeruginosa [5]", "result": 32, "unit": "µg/mL"}, {"measurement": "LC50", "setting": "[9]", "result": 16.5, "unit": "µg/mL"}, {"measurement": "zone of inhibition at 50 µg/disc", "setting": "Escherichia coli [6]", "result": 10, "unit": "mm"}, {"measurement": "MIC", "setting": "Staphylococcus aureus [7]", "result": 15, "unit": "µg/mL"}, {"measurement": "zone of inhibition at 50 µg/disc", "setting": "Staphylococcus aureus [8]", "result": 12, "unit": "mm"}]}
